Values of other authors in paper PMC10216478, “Development of a Non-Peptide Angiotensin II Type 1 Receptor Ligand by Structural Modification of Olmesartan as a Biased Agonist” (Biomedicines, 2023).

What was measured:
AT1 receptor = test system: AT1 receptor; set-up: method as in PMID 15785012; settings: cited from earlier work
[1] = test system: human coronary artery smooth muscle cells; set-up: method as in PMID 15785012; settings: as well as a stably expressed AT1 receptor cell line; cited from earlier work

For [Sar^1, Ile^4, Ile^8]Ang II, the “Gq-dependent inositol phosphate (IP) production” value (AT1 receptor) is given as “did not increase” and the “Gq-independent ERK 1/2 activation” value [1] is given as “still activated”.
